Measurements as given in patent US9044483B2, “Cell death inhibition by macrophage migration inhibitory factor and a binding substance thereto” (Takeda Pharmaceuticals Company Limited, priority 2006, dated 2015).

Experiments:
rat MIF = molecular target: T1, rat MIF (Rattus norvegicus, UniProt P30904, G111N); assay: Binding to rat MIF by surface plasmon resonance (BIACORE 3000), compound immobilized on sensor chip CM5; details: 1 μg/ml rat MIF in PBS with 0.005% Tween 20, FIG. 1, FIG. 4
T1 construct: made in house; host or cells: Escherichia coli BL21 (DE3)
Description: The binding of rat MIF obtained in REFERENCE EXAMPLE 2 to Compound A (cf., EXAMPLE 107 of WO 03/020719; see the formula below) was analyzed by BIACORE 3000 (manufactured by Biacore Co., Ltd.).
After Compound A was immobilized onto a sensor chip CM5 (manufactured by Biacore Co., Ltd.), phosphate buffered saline containing 0.005% Tween 20 containing 1 μg/ml of rat MIF was passed over the chip to assess changes in surface plasmon resonance signal as the binding of the compound to rat MIF.
The binding of rat MIF obtained in REFERENCE EXAMPLE 2 to Compound C (see the formula below) was analyzed by BIACORE 3000 (manufactured by Biacore Co., Ltd.). In a manner similar to EXPERIMENT 1(1), Compound C was immobilized onto a sensor chip CM5 (manufactured by Biacore Co., Ltd.) and then, phosphate buffered saline containing 0.005% Tween 20 containing 1 μg/ml of rat MIF was passed over the chip to assess changes in surface plasmon resonance signal as the binding of the compound to rat MIF.

His-hMIF = molecular target: T2, His-hMIF (Homo sapiens, UniProt P14174); assay: Binding of His-hMIF (peptide added to N terminus) to immobilized Compound A by BIACORE 3000; details: FIG. 5
T2 construct: the region encoding MIF was amplified from human complementary DNA (cDNA) library; made in house; host or cells: Escherichia coli BL21 (DE3)
T2 sequence (P14174 with tags, fused parts or gaps): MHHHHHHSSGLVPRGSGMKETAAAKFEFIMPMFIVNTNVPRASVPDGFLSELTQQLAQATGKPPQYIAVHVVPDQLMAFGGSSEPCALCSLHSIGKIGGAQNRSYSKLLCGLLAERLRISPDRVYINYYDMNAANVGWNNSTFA
Description: (§1) After Compound A was immobilized onto a sensor chip CM5 (manufactured by Biacore Co., Ltd.), HBS-EP buffer (manufactured by Biacore Co., Ltd.) containing 10 μg/ml of hMIF or hMIF-P1S was passed over the chip to assess changes in surface plasmon resonance signal as the binding of the compound to human MIF.
Similarly, the binding of Compound A to His-hMIF added with the peptide to its N terminus, obtained in REFERENCE EXAMPLE 3, was analyzed.

hMIF-P1S = molecular target: T3, hMIF-P1S (Homo sapiens, UniProt P14174); assay: Binding of modified human MIF (hMIF-P1S) to immobilized Compound A by BIACORE 3000; details: 10 μg/ml hMIF or hMIF-P1S in HBS-EP buffer, FIG. 2
T3 construct: the region encoding MIF was amplified from human complementary DNA (cDNA) library; made in house; host or cells: Escherichia coli BL21 (DE3)
T3 sequence (P14174 with tags, fused parts or gaps): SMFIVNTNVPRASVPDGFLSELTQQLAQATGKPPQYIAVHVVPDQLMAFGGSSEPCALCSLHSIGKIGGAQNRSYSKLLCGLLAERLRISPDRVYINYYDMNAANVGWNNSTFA
Description: The binding of human MIF (hMIF) and modified human MIF (hMIF-P1S) obtained in REFERENCE EXAMPLE 1 to Compound A was analyzed by BIACORE 3000 (manufactured by Biacore Co., Ltd.).
as §1

| binding of the compound to rat MIF (changes in surface plasmon resonance signal) (rat MIF) | binding ability of Compound A to human MIF with 30 amino acid-polypeptide containing histidine tag added to the N terminus (His-hMIF), compared with hMIF (His-hMIF) | binding ability of Compound A to human MIF with N-terminal proline replaced by serine (hMIF-P1S), compared with hMIF (hMIF-P1S) | SMILES |
| --- | --- | --- | --- |
| weaker than that of Compound A |  |  | Cc1cccc2c(=O)nc(-c3cccc(C(=O)NCCCCCCN)n3)sc12 [Compound C, N-(6-aminohexyl)-6-(8-methyl-4-oxo-4H-1,3-benzothiazin-2-yl)pyridine-2 carboxamide] |
| strongly binds | greatly attenuated | greatly attenuated | NCCCCCCNC(=O)c1cccc(-c2nc(=O)c3ccccc3s2)n1 [Compound A, N-(6-aminohexyl)-6-(4-oxo-4H-1,3-benzothiazin-2-yl)-2-pyridinecarboxamide] |
